Reference: ChEMBL document CHEMBL1770070, “Dibenzylideneacetone analogues as novel Plasmodium falciparum inhibitors” (Bioorg Med Chem Lett, 2011)
pIC50: −log10 of the molar value.

Experiments:
Plasmodium falciparum [1] = assay: Antiplasmodial activity against blood stage of chloroquine-sensitive Plasmodium falciparum 3D7 infected in human O positive erythrocytes after 48 hrs by SYBR green-I based fluorescence assay; format: functional, organism-based; details: 3D7, 48 h
Plasmodium falciparum [2] = assay: Antiplasmodial activity against blood stage of chloroquine-resistant Plasmodium falciparum isolate RKL9 infected in human O positive erythrocytes after 48 hrs by SYBR green I-based fluorescence assay; format: functional, organism-based; details: isolate RKL9, 48 h
[3] = Cytotoxic activity against human HeLa cells after 24 to 48 hrs by MTT assay; format: cell-based; details: read-out: TC50 (the source's name)
Plasmodium falciparum [4] = assay: Resistance index, ratio for IC50 for chloroquine-resistant Plasmodium falciparum isolate RKL9 to IC50 for chloroquine-sensitive Plasmodium falciparum 3D7; format: functional
[5] = Therapeutic index, TC50 for human HeLa cells to IC50 for chloroquine-resistant Plasmodium falciparum isolate RKL9; format: cell-based; details: read-out: TI

Structure (SMILES) | pIC50 (Plasmodium falciparum [1]) | pIC50 (Plasmodium falciparum [2]) | CC50 [3] | Ratio IC50 (Plasmodium falciparum [4]) | selectivity ratio [5]
O=C(/C=C/c1ccccc1)/C=C/c1ccccc1 | 3.67 | – | – | – | –
C(=C\c1ccccc1)/C1=NN(c2ccccc2)C(c2ccccc2)C1 (configuration not stated) | < 3.51 | – | – | – | –
COc1ccccc1/C=C/C(=O)/C=C/c1ccccc1OC | 4.13 | – | – | – | –
O=C(/C=C/c1ccc(Cl)cc1Cl)/C=C/c1ccc(Cl)cc1Cl | 5.00 | 4.97 | > 269 µM | 1.08 | > 25
Fc1ccc(/C=C/C2=NN(c3ccccc3)C(c3ccc(F)cc3)C2)cc1 (configuration not stated) | 5.04 | 4.96 | > 277 µM | 1.21 | > 25
O=C(/C=C/c1ccccc1Cl)/C=C/c1ccccc1Cl | 5.20 | 5.20 | 231 µM | 1 | 37
Cc1ccc(/C=C/C2=NN(c3ccccc3)C(c3ccc(C)cc3)C2)cc1 (configuration not stated) | < 3.85 | – | – | – | –
COc1ccc(/C=C/C(=O)/C=C/c2ccc(OC)c(OC)c2)cc1OC | 5.71 | 5.77 | 282 µM | 0.85 | 166
O=C(/C=C/c1cccc([N+](=O)[O-])c1)/C=C/c1cccc([N+](=O)[O-])c1 | 4.41 | – | – | – | –
COc1ccc(/C=C/C2=NN(c3ccccc3)C(c3ccc(OC)cc3)C2)cc1 (configuration not stated) | < 3.89 | – | – | – | –

Further lines, with some results ahead:

pIC50 (Plasmodium falciparum [1]) | Structure (SMILES) | pIC50 (Plasmodium falciparum [2]) | CC50 [3] | Ratio IC50 (Plasmodium falciparum [4]) | selectivity ratio [5]
4.03 | O=C(/C=C/c1ccc(Cl)cc1)/C=C/c1ccc(Cl)cc1 | – | – | – | –
3.94 | Cc1ccc(/C=C/C(=O)/C=C/c2ccc(C)cc2)cc1 | – | – | – | –
3.59 | COc1ccc(/C=C/C(=O)/C=C/c2ccc(OC)cc2)cc1 | – | – | – | –
3.81 | CN(C)c1ccc(/C=C/C(=O)/C=C/c2ccc(N(C)C)cc2)cc1 | – | – | – | –
3.65 | O=C(/C=C/c1ccc(Br)cc1)/C=C/c1ccc(Br)cc1 | – | – | – | –
3.88 | O=C(/C=C/c1ccc(F)cc1)/C=C/c1ccc(F)cc1 | – | – | – | –
